Data reported in ChEMBL document CHEMBL4024791, “Identification of Morpholino-2H-pyrido[3,2-b][1,4]oxazin-3(4H)-ones as Nonsteroidal Mineralocorticoid Antagonists” (J Med Chem, 2018).

Key:
CYP2C9 = CYP2C9 (Homo sapiens, UniProt P11712); test: Inhibition of CYP2C9 (unknown origin) at 3 uM; format: ADME
Glucocorticoid receptor = target: T1, Glucocorticoid receptor (Homo sapiens, UniProt P04150); test: Antagonist activity at GR (unknown origin) by Gal4-based cellular assay
T1 sequence (P04150 whole entry): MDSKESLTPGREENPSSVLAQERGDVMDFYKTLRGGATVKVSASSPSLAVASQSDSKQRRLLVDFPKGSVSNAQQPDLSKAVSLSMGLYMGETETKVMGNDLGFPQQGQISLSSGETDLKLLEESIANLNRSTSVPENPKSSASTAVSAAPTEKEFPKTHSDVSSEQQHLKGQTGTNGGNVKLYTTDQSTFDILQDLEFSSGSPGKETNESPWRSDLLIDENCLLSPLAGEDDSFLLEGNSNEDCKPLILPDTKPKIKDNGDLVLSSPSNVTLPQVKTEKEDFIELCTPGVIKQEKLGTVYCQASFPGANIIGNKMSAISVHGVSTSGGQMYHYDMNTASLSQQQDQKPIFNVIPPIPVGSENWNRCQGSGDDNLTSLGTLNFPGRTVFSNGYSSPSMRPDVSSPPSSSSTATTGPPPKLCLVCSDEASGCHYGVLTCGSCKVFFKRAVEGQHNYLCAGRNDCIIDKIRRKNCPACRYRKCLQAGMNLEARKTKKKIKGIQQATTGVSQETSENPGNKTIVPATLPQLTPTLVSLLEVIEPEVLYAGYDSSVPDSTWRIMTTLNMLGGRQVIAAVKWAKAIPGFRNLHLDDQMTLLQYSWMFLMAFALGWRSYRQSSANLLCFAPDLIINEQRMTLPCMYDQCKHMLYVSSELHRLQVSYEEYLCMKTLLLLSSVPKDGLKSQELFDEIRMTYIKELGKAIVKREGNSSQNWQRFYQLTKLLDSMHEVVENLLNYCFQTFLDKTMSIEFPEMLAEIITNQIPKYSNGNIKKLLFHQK

CYP2D6 = CYP2D6 (Homo sapiens, UniProt P10635); test: Inhibition of CYP2D6 (unknown origin) at 3 uM; format: ADME
CYP1A2 = target: T2, CYP1A2 (Homo sapiens, UniProt P05177); test: Inhibition of CYP1A2 (unknown origin) at 3 uM; format: ADME
T2 sequence (P05177 whole entry): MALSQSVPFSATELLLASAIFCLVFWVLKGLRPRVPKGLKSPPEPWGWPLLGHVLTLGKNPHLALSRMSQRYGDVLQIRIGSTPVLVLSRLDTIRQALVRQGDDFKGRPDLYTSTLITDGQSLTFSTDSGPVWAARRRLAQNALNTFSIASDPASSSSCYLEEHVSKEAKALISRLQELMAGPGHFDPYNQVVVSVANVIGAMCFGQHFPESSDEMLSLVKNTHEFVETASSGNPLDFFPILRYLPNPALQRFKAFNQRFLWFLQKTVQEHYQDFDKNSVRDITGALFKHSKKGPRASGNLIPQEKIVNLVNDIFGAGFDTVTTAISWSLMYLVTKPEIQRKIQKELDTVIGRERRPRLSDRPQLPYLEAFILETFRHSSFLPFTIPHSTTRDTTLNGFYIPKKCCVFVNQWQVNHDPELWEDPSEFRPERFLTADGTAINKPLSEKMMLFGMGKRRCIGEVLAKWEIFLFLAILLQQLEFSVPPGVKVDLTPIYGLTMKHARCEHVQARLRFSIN

Progesterone receptor = target: T3, Progesterone receptor (Homo sapiens, UniProt P06401); test: Antagonist activity at PR (unknown origin) by Gal4-based cellular assay
T3 sequence (P06401 whole entry): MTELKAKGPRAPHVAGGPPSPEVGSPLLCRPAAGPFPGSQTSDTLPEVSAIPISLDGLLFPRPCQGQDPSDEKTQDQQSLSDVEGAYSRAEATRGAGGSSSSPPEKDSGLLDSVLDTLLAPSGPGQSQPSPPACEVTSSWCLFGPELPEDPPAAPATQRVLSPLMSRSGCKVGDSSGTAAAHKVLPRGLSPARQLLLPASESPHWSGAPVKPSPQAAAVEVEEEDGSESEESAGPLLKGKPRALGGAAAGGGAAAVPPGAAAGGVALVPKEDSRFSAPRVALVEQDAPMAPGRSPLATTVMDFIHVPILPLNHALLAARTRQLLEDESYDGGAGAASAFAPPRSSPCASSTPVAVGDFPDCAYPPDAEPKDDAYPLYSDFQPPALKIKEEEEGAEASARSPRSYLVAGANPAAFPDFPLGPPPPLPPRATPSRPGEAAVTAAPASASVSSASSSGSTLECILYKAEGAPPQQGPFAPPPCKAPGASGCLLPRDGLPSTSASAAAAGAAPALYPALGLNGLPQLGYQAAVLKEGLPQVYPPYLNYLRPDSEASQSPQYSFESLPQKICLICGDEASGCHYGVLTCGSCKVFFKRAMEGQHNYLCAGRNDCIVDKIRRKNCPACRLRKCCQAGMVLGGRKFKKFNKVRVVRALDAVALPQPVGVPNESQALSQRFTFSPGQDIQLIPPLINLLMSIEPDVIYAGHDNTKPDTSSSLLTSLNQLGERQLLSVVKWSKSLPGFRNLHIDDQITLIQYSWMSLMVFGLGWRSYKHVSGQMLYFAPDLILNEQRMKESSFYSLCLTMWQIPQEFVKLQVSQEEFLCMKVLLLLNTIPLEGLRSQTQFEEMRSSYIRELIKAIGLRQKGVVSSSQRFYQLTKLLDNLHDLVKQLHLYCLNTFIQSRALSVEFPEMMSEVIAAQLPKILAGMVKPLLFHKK

Sequence of CYP2D6 (P10635 whole entry): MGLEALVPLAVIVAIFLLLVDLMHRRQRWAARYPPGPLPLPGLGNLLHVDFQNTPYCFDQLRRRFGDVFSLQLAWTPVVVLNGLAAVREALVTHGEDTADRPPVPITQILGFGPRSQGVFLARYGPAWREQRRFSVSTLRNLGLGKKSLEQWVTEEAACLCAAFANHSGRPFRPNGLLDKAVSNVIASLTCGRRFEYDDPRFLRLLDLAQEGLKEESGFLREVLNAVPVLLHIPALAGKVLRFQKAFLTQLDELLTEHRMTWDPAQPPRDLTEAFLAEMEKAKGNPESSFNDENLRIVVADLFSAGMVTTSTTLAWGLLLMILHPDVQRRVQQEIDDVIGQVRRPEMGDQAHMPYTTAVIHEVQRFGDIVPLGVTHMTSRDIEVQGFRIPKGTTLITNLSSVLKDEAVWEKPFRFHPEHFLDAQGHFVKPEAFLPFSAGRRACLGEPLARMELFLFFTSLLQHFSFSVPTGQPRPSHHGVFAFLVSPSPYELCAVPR
Sequence of CYP2C9 (P11712 whole entry, the tested form may be a part): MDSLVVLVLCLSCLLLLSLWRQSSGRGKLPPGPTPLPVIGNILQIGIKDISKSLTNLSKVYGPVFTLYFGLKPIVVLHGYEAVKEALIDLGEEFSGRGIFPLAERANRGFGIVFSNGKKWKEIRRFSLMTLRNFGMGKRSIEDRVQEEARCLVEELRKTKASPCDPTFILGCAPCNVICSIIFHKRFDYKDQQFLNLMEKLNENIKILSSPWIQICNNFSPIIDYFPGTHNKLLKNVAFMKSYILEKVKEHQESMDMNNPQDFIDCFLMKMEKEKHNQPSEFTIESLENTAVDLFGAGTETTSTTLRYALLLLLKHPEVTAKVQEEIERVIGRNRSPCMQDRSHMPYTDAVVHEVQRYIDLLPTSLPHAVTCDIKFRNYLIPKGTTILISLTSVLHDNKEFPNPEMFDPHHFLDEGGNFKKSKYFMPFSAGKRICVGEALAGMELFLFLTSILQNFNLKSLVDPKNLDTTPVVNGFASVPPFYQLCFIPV

SMILES | inhibition at 3 µM (CYP2C9) [%] | IC50 (Glucocorticoid receptor) [µM] | inhibition at 3 µM (CYP2D6) [%] | inhibition at 3 µM (CYP1A2) [%] | IC50 (Progesterone receptor) [µM]
C[C@@H]1CN(c2ccc3c(n2)NC(=O)CO3)[C@H](c2ccccc2)CO1 | < 20 | > 10 | < 20 | < 20 | > 10
O=C1COc2ccc(N3CCOC[C@H]3c3ccccc3)cc2N1 | < 10 | > 10 | < 10 | < 10 | > 10
